Key:
LKS^+ cells = assay: Serum-free, stromal cell-free culture of sorted LKS+ cells, lineage markers by flow cytometry; format: cell-based, mouse
Description: FIGS. 2A-D—Activation of TLRs through MyD88 on LKS^+ cells leads to myeloid cell differentiation. (FIG. 2A) Left, sorted LKS^+ cells (10,000 cells/well) from C57BL/6 or MyD88^−/− mice were cultured in the presence of FL and SCF with medium alone, LPS (10 μg/ml) or Pam3CSK4 (1 μg/ml). After 72 h in culture, cells were analyzed by flow cytometry for expression of lineage markers. Percentages indicate the frequencies of Lin^+ or Lin^− cells. Right, the bar graph depicts yields, i.e., numbers of Lin^+ cell recovered per input progenitor and the data represent mean values with standard deviations from triplicate cultures (*P<0.01). The results are representative of five independent experiments. […] After 72 or 96 h in culture, cells were analyzed by flow cytometry for Mac-1 and F4/80. […] After 72 h in culture, cells were analyzed by flow cytometry for expression of lineage markers. […]
FIG. 11A-B—TLR stimulation causes a progression of Lin^+ cells from LKS^+ cells and soluble CD14 augments the acquisition of Mac-1 and F4/80. […] After 24 or 48 h in culture, cells were analyzed by flow cytometry for expression of lineage markers and percentages of Lin^+ or Lin^− cells are indicated. […] After 24, 48, or 72 h in culture, cells were analyzed by flow cytometry for expression of lineage markers. […] After 72 h in culture, cells were analyzed by flow cytometry for expression of Mac-1 and F4/80. […]

GMP = assay: Culture of sorted GMP for 72 h, morphology and Mac-1/F4/80 flow cytometry; format: cell-based, mouse
Description: FIGS. 5A-C—TLR stimulation drives differentiation of GMP into F4/80^hi monocytes/macrophages. (FIG. 5A) These photomicrographs were prepared with Giemsa-May-Grünwald stained cytocentrifuged slides. ([…]) Sorted GMP were stimulated with LPS (1 μg/ml), Pam3CSK4 (100 ng/ml), M-CSF, or GM-CSF. After 72 h in culture, cells were analyzed by flow cytometry for expression of F4/80 and Mac-1. Percentages indicate the frequencies of Mac-1^lo F4/80^lo or Mac-1^hi F4/80^hi cells. CD86, Gr-1, or CD62L were analyzed by flow cytometry on Mac-1^hi F4/80^hi cells. Open histograms depict staining with the appropriate isotype matched Abs. The results are representative of those obtained in two independent experiments. (FIG. 5C) The bar graphs depict cell yields of Mac-1^lo F4/80^lo or Mac-1^hi F4/80^hi cells. The data represent mean values with standard deviations from triplicate cultures and are representative of three independent experiments.
Serum-free, stromal cell-free cell cultures. Round-bottomed 96-well plates or flat-bottomed 24-well plates (Corning Inc.) were used for these cultures. […]
Cell morphology. Cytospins of cultured progenitor cells were stained with Giemsa-May-Grünwald (Sigma Diagnostics, St. Louis, Mo.), mounted in Immersol (Zeiss, Thornwood, N.Y.), and analyzed on a Zeiss Axioplan 2i microscope with a 100×/1.4 NA Plan Achromat objective. […]

Pam3CSK4
Increase of absolute numbers of Lin+ cells (LKS^+ cells; LKS+ cells with FL and SCF, within 72 h): approximately eight-fold | Increase of Lin+ cells with cells from MyD88-deficient mice (LKS^+ cells; MyD88-deficient LKS+ cells, 72 h): did not occur | CD11b/Mac-1 expression of cells produced from GMP (GMP): Virtually all cells produced in response to LPS or Pam3CSK4 were CD11b/Mac-1^+ | Morphology of recovered cells (GMP; GMP, Giemsa-May-Grünwald): less homogeneous in appearance

Source: patent US7592003B2, “Regulation of toll-like receptors on stem cells” (Oklahoma Medical Research Foundation, priority 2005, dated 2009)
